Experimental data from patent publication US20050014845A1, “Ambroxol for the treatment of epilepsy” (Boehringer Ingelheim International GmbH, priority 2003, published 2005).

Experiments:
human GluR1/2 receptors = target: T1, human GluR1/2 receptors (Homo sapiens, UniProt P42261+P42262); experiment: Patch-Clamp of glutamate-induced membrane currents in HEK 293 cells expressing GluR1/2; type: cell-based; settings: 1 mM glutamate for 1 s, holding potential −80 mV
T1 construct: expressed in transfected cells; host or cells: HEK 293
T1 sequence (P42261 19-906): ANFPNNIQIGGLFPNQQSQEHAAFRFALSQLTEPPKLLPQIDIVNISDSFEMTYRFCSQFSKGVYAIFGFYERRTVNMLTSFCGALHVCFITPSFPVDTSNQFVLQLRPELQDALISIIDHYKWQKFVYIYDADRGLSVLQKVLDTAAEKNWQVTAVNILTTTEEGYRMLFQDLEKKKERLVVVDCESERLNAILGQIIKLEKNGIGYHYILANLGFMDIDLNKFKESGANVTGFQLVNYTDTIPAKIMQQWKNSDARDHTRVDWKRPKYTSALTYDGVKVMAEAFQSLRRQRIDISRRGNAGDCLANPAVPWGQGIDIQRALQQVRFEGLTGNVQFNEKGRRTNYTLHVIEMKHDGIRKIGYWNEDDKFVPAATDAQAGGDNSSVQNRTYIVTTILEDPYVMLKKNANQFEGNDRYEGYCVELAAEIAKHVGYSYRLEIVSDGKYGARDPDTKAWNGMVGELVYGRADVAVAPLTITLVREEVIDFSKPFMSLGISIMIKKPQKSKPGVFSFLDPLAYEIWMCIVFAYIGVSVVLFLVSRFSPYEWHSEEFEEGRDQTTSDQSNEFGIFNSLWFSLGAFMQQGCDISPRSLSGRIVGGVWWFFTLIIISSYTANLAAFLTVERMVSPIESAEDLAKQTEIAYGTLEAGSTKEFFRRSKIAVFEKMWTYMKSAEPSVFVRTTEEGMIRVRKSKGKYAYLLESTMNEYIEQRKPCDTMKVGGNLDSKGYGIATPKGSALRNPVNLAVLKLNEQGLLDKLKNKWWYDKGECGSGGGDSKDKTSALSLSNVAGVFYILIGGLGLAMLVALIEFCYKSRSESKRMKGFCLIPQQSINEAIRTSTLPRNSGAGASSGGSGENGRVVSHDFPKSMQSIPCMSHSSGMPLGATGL
T1 sequence (P42262 22-883 limits assumed): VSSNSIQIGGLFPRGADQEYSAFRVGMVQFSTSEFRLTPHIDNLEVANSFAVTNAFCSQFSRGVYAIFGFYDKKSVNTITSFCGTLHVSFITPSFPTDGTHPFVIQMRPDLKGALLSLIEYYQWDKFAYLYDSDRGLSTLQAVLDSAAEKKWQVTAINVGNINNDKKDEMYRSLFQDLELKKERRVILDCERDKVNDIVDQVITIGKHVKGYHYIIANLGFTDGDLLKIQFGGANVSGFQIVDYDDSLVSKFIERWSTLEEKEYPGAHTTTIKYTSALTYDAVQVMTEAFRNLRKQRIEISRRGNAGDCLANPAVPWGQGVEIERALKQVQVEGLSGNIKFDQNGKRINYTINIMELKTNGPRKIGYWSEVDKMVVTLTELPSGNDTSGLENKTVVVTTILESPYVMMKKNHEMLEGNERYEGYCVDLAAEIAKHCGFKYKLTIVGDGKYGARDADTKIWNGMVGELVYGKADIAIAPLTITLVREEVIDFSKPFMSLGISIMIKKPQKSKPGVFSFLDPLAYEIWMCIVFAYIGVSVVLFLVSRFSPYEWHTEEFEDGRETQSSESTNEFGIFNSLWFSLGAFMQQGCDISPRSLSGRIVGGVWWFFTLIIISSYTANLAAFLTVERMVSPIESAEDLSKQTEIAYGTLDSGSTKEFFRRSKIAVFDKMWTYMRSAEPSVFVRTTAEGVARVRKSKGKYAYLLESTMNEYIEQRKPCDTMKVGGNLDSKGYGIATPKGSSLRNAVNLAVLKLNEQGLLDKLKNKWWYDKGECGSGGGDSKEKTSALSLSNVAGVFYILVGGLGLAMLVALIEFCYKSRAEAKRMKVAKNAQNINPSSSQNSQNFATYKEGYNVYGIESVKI
Protocol: HEK 293 cells which expressed functionally recombinant human GluR1/2 receptors were electrophysiologically investigated by the Patch-Clamp method ([…]). The administration of 1 mM glutamate (for 1 s at a holding potential of −80 mV) induced membrane currents which were inhibited by the joint administration of ambroxol.

[1] = system: centrally expressed neuronal sodium channels; settings: neuronal sodium channel subtypes, read-out: half-maximal inhibition of centrally expressed channels; cited from earlier work

concentrations inhibiting glutamate-induced membrane currents (human GluR1/2 receptors): 30 to 1000 µM
SMILES: Nc1c(Br)cc(Br)cc1CN[C@H]1CC[C@H](O)CC1 [ambroxol, trans-4-(2-amino-3,5-dibromobenzylamino)cyclohexanol]
IC50 [1]: 111 µM
